Experimental data published in BindingDB's records for doi:10.1016/S0960-894X(96)00609-9 (1997).

Molecular target: Gastrin/cholecystokinin type B receptor (Cavia porcellus)
Assay: Inhibition of [125I]Cholecystokinin-8 binding to Cholecystokinin type B receptor of guinea pig cerebral cortical membranes
Molecule `CC(=O)c1cccc(NC(=O)NC2N=C(c3ccccc3F)c3cccc(C)c3N(CC(=O)N3CC4CCC(CC4)C3)C2=O)c1` (centres undefined) [1-(3-Acetyl-phenyl)-3-[1-[2-(3-aza-bicyclo[3.2.2]non-3-yl)-2-oxo-ethyl]-5-(2-fluoro-phenyl)-9-methyl-2-oxo-2,3-dihydro-1H-benzo[e][1,4]diazepin-3-yl]-urea] has an IC50 of 840 pM.
Work on `Cc1cccc2c1N(CC(=O)N1CC3CCC(CC3)C1)C(=O)C(NC(=O)Nc1cccc(Br)c1)N=C2c1ccccc1F` (centres undefined) [1-[1-[2-(3-Aza-bicyclo[3.2.2]non-3-yl)-2-oxo-ethyl]-5-(2-fluoro-phenyl)-9-methyl-2-oxo-2,3-dihydro-1H-benzo[e][1,4]diazepin-3-yl]-3-(3-bromo-phenyl)-urea] yielded an IC50 of 1800 pM.
`Cc1cccc2c1N(CC(=O)N1CC3CCC(CC3)C1)C(=O)C(NC(=O)Nc1cccc(Cl)c1)N=C2c1ccccc1F` (centres undefined) [1-[1-[2-(3-Aza-bicyclo[3.2.2]non-3-yl)-2-oxo-ethyl]-5-(2-fluoro-phenyl)-9-methyl-2-oxo-2,3-dihydro-1H-benzo[e][1,4]diazepin-3-yl]-3-(3-chloro-phenyl)-urea] showed an IC50 of 2000 pM.
For `COc1cccc(NC(=O)NC2N=C(c3ccccc3F)c3cccc(C)c3N(CC(=O)N3CC4CCC(CC4)C3)C2=O)c1` (centres undefined) [1-[1-[2-(3-Aza-bicyclo[3.2.2]non-3-yl)-2-oxo-ethyl]-5-(2-fluoro-phenyl)-9-methyl-2-oxo-2,3-dihydro-1H-benzo[e][1,4]diazepin-3-yl]-3-(3-methoxy-phenyl)-urea], the IC50 was 1000 pM.
In the case of `CSc1cccc(NC(=O)NC2N=C(c3ccccc3F)c3cccc(C)c3N(CC(=O)N3CC4CCC(CC4)C3)C2=O)c1` (centres undefined) [1-[1-[2-(3-Aza-bicyclo[3.2.2]non-3-yl)-2-oxo-ethyl]-5-(2-fluoro-phenyl)-9-methyl-2-oxo-2,3-dihydro-1H-benzo[e][1,4]diazepin-3-yl]-3-(3-methylsulfanyl-phenyl)-urea], the IC50 is reported as 370 pM.
Work on `Cc1cccc(NC(=O)NC2N=C(c3ccccc3F)c3cccc(C)c3N(CC(=O)N3CC4CCC(CC4)C3)C2=O)c1` (centres undefined) [1-[1-[2-(3-Aza-bicyclo[3.2.2]non-3-yl)-2-oxo-ethyl]-5-(2-fluoro-phenyl)-9-methyl-2-oxo-2,3-dihydro-1H-benzo[e][1,4]diazepin-3-yl]-3-m-tolyl-urea] yielded an IC50 of 470 pM.
Molecule `Cc1cccc2c1N(CC(=O)N1CC3CCC(CC3)C1)C(=O)C(NC(=O)Nc1cccc(C(=O)O)c1)N=C2c1ccccc1F` (centres undefined) [3-{3-[1-[2-(3-Aza-bicyclo[3.2.2]non-3-yl)-2-oxo-ethyl]-5-(2-fluoro-phenyl)-9-methyl-2-oxo-2,3-dihydro-1H-benzo[e][1,4]diazepin-3-yl]-ureido}-benzoic acid] has an IC50 of 960 pM.
`Cc1cccc(NC(=O)NC2N=C(c3ccccc3F)c3ccccc3N(CC(=O)N3CC4CCC(CC4)C3)C2=O)c1` (centres undefined) [FR-175985] gave an IC50 of 87 pM.

Molecular target: not listed separately
Assay: Inhibition of [125I]-Cholecystokinin-8 (125I-CCK-8) binding to Cholecystokinin type B receptor of guinea pig cerebral cortical membranes
Work on `Cc1cccc2c1N(CC(=O)N1CC3CCC(CC3)C1)C(=O)C(NC(=O)Nc1cccc(-c3nnn[nH]3)c1)N=C2c1ccccc1F` (centres undefined) [1-[1-[2-(3-Aza-bicyclo[3.2.2]non-3-yl)-2-oxo-ethyl]-5-(2-fluoro-phenyl)-9-methyl-2-oxo-2,3-dihydro-1H-benzo[e][1,4]diazepin-3-yl]-3-[3-(1H-tetrazol-5-yl)-phenyl]-urea] yielded an IC50 of 6400 pM.
